As usually defined, the melting point is the temperature of the solid-liquid transition. As to `COc1cc2c(cc1OCc1ccccc1)CCN(C(=O)c1cccc(C#N)c1)C2=O`, the melting point fell in the range of 195 to 196 °C.
In the case of `CCCCCCCCCCCC(=O)NC(=O)N1CC1C#N` (stereo not given) it was 140 to 143 °C; in that of `O=C(O)c1cc(=O)cc(-c2ccc(OCc3ccccc3)cc2)o1`, 235 °C.
To `CONC(=O)Nc1ccc(-c2sc3c(c2CN(C)C(C)c2ccccc2)c(=O)n(-c2ccccc2)c(=O)n3Cc2c(F)cccc2F)cc1` (stereo not given) belongs 191 to 192 °C; to `CCC(I)CCCC(F)(F)C(F)(F)C(F)(F)C(F)(F)C(F)(F)C(F)(F)C(F)(F)C(F)(F)F` (stereo not given), 46 to 47 °C; to `CC1(c2cc(/C=C/c3ccc(C(=O)O)cc3)ccc2O)CCCCC1`, 229 °C.
To `COc1cc(OCCCN2CCC(c3n[nH]c4cc(F)ccc34)CC2)ccc1C(C)=O` belongs 202 to 204 °C; to `CCOC(=O)c1nnc(CNC(=O)c2cc3ccccc3[nH]2)n1-c1sc(CC)cc1C(=O)c1ccccc1Cl`, 233 to 235 °C.
In turn, `C#Cc1cnc2sc(S(=O)(=O)CCCCCCC)nn2c1=O` returned a melting point of 180 to 182 °C.
Take `CC1(C)Cc2sccc2C(NC(N)=O)C1` (stereo not given): the melting point lay in the range of 174 to 178 °C.
To `CCOc1nsc(NC(=O)N(C)C)c1C#N` belongs 204 to 205 °C; to `FC(F)(F)Oc1ccc(-c2ccc(C=CCBr)cc2)cc1`, 121 to 123 °C.
In the case of `Cc1c(Cl)cc(C(=O)C(O)CC(=O)O)cc1Cl` (stereo not given) it was 114 to 118 °C.
`CSc1ccc(-c2c(Cl)ncn2-c2ccc(S(C)(=O)=O)cc2)cc1` showed a melting point of 216 to 220 °C.
Regarding `CS(=O)(=O)c1ccc2c(c1)C1(O)C(C2)SC(=Nc2ccccc2)N1c1ccccc1` (stereo not given), the melting point was 75 °C.
Turning to `O=C(c1cnc2c(n1)CCCC2)C1CCCCC1`, the melting point is 63.5 to 64.5 °C.
In the case of `Cc1ccc(-c2ccc3c(c2)C=C(S(=O)(=O)Cl)CCO3)cc1` it was 162 to 166 °C; in that of `CC1(c2ccc(I)cc2)CO1` (stereo not given), 44 to 45 °C.
In the case of `CCOC(=O)Cc1nn(Cc2nc3cc(C(F)(F)F)ccc3s2)c(=O)c2ccccc12` it was 131 to 132 °C.
To `CC(NC(=O)NO)c1ccc2cc(OCc3csc(-c4ccccc4)n3)ccc2c1` (single isomer, unassigned; (-)) belongs 171 to 173 °C; to `NC(=S)Nc1ccccc1-c1ccc(Cl)cc1`, 175 to 177 °C; to `Cc1ccc2c(c1)C=Cc1ncccc1C2c1cn(C)c(=O)[nH]c1=S` (stereo not given), 157 to 160 °C.
As for `COc1ccc(-c2cccc(C#N)n2)cc1`, the melting point lay in the range of 86.3 to 86.6 °C.
To `CN(C)CCNc1nc(C(=O)Nc2nc3ccc(C#N)cc3s2)cs1` belongs 201 to 203 °C; to `CC(C)n1c(=O)nc(-c2ccccc2)c2ccc(CO)cc21`, 223 to 225 °C; to `C(=C/c1ccccc1)/COCCC1CCN(Cc2ccccc2)CC1`, 68 to 70 °C.
In the case of `COc1cc(OC)cc(C2(Cl)C(=O)Nc3ccc(Cl)cc32)c1` (stereo not given) it was 157 °C.
To `Cc1nc(Br)sc1C(=O)NCc1ccccc1` belongs 92 to 94 °C; to `CC(C)CC(NC(=O)c1cc(O)c2c(c1)C(=O)c1cccc(O)c1C2=O)C(=O)O` (stereo not given), 204 to 206 °C.
`O=C(c1cccs1)c1cc2c(c(Cl)c1Cl)OC(CO)C2` (stereo not given) showed a melting point of 65 to 68 °C.
To `CCc1ccccc1NC(Nc1ccccc1CC)Nc1ccccc1CC` belongs 76 to 78 °C; to `Cn1c(C(F)(F)F)cc(C#N)c1-c1ccc(Cl)c(Cl)c1`, 130 °C; to `CS(=O)(=O)COC(=O)c1oc(-c2ccccc2)cc(=O)c1Br`, 192 °C.
`COC(=O)C(C)Oc1ccc(COc2ccc(-n3nc(C)n(C(F)F)c3=O)c(F)c2)cc1` (stereo not given) showed a melting point of 83 to 85 °C.
To `Oc1ccc(-c2c3ccccc3c(C(F)(F)F)c3sc4ccccc4c23)cc1` belongs 210 to 211 °C.

For the origin of these results see a melting point compilation (Tetko et al.; mined from patent text by program, amines drawn as free bases though some values may be those of a salt).
